In ChEMBL document CHEMBL3784917, “Recent Progress in Histone Demethylase Inhibitors” (J Med Chem, 2016):

Legend:
[1] = target: Lysine-specific demethylase 3B (Homo sapiens, UniProt Q7LBC6); assay: biochemical
[2] = target: T1, Lysine-specific demethylase 4B (Homo sapiens, UniProt O94953); assay: Inhibition of human N-terminal GST-tagged KDM4B (1 to 500 residues) expressed in baculovirus infected sf9 cells using biotinylated histone H3 as substrate preincubated for 10 mins followed by substrate addition measured after 10 mins by AlphaLisa assay
T1 sequence (O94953 whole entry): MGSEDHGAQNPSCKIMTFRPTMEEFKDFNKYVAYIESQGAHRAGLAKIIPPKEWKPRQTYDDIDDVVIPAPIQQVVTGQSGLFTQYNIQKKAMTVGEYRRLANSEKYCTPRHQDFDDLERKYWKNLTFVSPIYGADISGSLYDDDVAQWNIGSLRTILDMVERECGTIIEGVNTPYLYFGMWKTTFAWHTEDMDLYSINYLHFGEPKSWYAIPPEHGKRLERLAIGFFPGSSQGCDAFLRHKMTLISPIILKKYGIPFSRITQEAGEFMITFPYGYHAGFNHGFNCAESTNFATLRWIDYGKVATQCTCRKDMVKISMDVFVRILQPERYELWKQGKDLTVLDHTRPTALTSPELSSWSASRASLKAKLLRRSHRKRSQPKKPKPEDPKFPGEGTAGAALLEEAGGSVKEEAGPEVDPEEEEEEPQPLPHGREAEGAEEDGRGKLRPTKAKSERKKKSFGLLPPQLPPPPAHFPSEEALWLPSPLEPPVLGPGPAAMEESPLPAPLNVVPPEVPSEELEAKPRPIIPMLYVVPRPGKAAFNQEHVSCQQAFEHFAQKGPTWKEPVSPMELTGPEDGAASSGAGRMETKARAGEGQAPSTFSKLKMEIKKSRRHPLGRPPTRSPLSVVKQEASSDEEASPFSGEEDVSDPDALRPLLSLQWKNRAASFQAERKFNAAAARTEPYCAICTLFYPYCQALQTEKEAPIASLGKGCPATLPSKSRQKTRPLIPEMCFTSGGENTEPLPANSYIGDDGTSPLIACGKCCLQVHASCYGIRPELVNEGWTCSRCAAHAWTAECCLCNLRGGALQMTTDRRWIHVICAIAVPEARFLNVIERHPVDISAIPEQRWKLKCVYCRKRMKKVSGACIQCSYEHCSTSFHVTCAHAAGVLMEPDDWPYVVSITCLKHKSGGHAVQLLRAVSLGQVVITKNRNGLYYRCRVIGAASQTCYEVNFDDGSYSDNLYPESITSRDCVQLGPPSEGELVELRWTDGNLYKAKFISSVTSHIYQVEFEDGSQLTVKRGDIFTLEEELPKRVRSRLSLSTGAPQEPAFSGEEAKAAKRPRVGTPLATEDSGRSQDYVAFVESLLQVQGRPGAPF

[3] = target: T2, Lysine-specific demethylase 4C (Homo sapiens, UniProt Q9H3R0)
T2 sequence (Q9H3R0 whole entry): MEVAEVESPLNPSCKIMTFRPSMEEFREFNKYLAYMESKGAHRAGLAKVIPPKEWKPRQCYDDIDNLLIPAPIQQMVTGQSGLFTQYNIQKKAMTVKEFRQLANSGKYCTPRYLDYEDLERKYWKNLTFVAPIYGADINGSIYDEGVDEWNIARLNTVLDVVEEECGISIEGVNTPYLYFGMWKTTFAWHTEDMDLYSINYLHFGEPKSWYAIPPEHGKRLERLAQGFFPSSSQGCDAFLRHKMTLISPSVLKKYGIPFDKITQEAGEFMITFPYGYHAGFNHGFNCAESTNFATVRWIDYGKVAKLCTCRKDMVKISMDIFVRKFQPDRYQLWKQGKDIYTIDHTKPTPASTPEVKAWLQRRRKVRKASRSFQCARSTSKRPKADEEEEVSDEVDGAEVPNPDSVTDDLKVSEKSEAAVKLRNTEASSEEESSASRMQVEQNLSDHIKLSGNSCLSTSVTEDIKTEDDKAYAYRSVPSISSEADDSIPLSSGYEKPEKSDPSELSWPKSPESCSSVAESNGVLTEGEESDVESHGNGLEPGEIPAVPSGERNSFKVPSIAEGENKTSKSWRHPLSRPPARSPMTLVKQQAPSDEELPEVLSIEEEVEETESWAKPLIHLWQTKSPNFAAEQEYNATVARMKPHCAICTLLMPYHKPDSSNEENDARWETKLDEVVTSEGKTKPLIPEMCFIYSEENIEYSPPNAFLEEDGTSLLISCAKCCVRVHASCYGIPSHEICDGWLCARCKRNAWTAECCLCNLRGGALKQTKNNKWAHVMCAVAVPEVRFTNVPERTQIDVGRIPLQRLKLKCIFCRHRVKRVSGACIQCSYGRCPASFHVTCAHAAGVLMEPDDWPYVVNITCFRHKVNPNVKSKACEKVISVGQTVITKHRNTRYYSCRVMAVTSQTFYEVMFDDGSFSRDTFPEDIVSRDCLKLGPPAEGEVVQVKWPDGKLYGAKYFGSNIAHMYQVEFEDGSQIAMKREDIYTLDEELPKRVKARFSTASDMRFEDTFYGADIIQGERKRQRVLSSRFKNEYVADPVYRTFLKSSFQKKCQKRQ

Sequence of Lysine-specific demethylase 3B (Q7LBC6 whole entry, the tested form may be a part): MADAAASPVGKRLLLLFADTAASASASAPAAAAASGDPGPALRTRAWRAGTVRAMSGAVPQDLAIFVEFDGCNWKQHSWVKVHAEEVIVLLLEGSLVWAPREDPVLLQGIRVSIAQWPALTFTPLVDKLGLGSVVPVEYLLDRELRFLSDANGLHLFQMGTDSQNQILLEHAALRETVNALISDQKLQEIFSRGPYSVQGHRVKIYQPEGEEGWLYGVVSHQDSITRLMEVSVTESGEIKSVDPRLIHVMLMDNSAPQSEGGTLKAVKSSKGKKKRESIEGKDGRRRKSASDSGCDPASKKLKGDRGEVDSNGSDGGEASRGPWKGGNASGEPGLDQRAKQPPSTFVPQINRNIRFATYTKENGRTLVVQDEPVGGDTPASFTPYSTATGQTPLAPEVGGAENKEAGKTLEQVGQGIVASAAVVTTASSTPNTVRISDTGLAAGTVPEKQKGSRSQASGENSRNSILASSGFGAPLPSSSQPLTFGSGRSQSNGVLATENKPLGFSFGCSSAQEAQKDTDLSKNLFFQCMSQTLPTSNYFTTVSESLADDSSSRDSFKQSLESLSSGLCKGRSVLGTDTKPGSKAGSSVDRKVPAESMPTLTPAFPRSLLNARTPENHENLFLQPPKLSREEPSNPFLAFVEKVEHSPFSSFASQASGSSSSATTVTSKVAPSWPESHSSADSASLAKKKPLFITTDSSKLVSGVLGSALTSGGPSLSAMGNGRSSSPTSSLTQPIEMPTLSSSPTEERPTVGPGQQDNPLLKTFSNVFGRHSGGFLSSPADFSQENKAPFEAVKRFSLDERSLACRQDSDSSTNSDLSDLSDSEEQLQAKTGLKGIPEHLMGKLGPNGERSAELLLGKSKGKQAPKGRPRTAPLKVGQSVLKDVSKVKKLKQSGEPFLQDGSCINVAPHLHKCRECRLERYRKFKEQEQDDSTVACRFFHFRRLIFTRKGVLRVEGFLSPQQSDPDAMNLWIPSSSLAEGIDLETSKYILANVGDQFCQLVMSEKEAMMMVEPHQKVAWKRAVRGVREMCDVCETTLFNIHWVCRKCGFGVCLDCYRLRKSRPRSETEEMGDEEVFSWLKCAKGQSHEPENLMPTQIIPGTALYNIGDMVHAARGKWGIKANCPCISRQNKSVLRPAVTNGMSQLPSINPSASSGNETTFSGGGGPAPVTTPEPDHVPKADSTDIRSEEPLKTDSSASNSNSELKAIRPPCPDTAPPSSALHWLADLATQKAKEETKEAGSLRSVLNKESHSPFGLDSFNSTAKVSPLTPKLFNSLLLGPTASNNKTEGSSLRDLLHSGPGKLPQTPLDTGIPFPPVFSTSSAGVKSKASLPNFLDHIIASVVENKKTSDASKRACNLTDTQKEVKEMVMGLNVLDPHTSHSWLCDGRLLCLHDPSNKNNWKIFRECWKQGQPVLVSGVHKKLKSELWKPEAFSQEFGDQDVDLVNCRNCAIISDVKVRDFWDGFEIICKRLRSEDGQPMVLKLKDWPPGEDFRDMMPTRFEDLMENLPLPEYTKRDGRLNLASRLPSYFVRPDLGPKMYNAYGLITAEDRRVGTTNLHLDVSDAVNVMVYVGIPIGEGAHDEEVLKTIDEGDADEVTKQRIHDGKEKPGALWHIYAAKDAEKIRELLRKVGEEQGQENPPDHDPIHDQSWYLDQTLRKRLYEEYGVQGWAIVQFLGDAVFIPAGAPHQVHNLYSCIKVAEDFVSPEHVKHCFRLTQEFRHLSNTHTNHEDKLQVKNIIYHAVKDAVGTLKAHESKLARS

| IC50 [1] [nM] | IC50 [2] [nM] | IC50 [3] [nM] | SMILES |
| --- | --- | --- | --- |
| > 1000 | < 100 | < 100 | CCN(CCN(C)C)C(=O)CNCc1cc(C(=O)O)ccn1 |
| > 2500 | < 250 | > 2500 | CCN(CC)CCCCNCc1cc(C=O)ccn1 |
| > 2500 | > 2500 | > 2500 | CCN(CCN(C)C)C(=O)CNCc1cc(CNC(=O)C(F)(F)F)ccn1 |
